Source: patent US6841519B1, “Isoxazoline derivatives and herbicides containing the same as the active ingredient” (Kumiai Chemical Industry Co., Ltd., priority 1999, dated 2005)

Experiments:
Assay type in all cases: in vivo
[1] = system: Echinochloa crus-galli (L.) Beauv. var. crusgalli (Ec); test: Test for herbicidal effect by upland foliage treatment (Test Example 3); conditions: 100 g/10 a active ingredient, examined at 14th day
Procedure, shortened: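 Scored 14 days post-spray against a graded standard: greenhouse-grown Ec, 2 weeks old in upland soil, received whole-foliage application of diluted wettable powder (100 g active ingredient per 10 ares, spray volume 100 L per 10 ares).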

[2] = system: Echinochloa oryzicola Vasing. (Eo); test: Test for herbicidal effect by paddy field soil treatment (Test Example 1); conditions: application amount (active ingredient) 100 g/10 a, examined at the 21st day from the treatment, index per Table 40
Procedure, shortened: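 Scored on a standard scale at day 21 in the greenhouse: herbicidal effect of wettable powder applied to flooded water (3 cm depth) at 100 g a.i./10 ares, one day after sowing Eo into puddled paddy soil.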

[3] = system: Setaria viridis (L.) Beauv. (Se); test: Test for herbicidal effect by upland field soil treatment (Test Example 2), Se
Procedure, shortened: (§1)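 Pre-emergence soil treatment: wettable powder diluted in water and sprayed on soil just sown with Ec and Se seeds, delivering 100 g active ingredient per 10 ares in 100 liters per 10 ares. Herbicidal effect was rated against a fixed scale 21 days later, after greenhouse growth.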

[4] = system: Echinochloa crus-galli (L.) Beauv. var. crusgall (Ec); test: Test for herbicidal effect by upland field soil treatment (Test Example 2), Ec
Procedure, shortened: as §1

[5] = 100 g/10 a active ingredient, examined at 21st day
[6] = application amount (active ingredient) 100 g/10 a, examined at the 21st day from the treatment, index per Table 40

Cc1ccc(F)c(CS(=O)(=O)C2=NOC(C)(C)C2)c1F [Compound 1-550]
Herbicidal effect to Ec [1]: 5 (A herbicidal effect or phytotoxicity of 90% or more)
Herbicidal effect to Eo [2]: 5 (A herbicidal effect or phytotoxicity of 90% or more)
Herbicidal effect to Se [3, 5]: 5 (A herbicidal effect or phytotoxicity of 90% or more)
Herbicidal effect to Ec [4, 5]: 5 (A herbicidal effect or phytotoxicity of 90% or more)

CCCOc1cccc(F)c1CS(=O)(=O)C1=NOC(C)(C)C1 [Compound 1-569]
Herbicidal effect to Ec [1]: 5 (A herbicidal effect or phytotoxicity of 90% or more)
Herbicidal effect to Eo [2]: 5 (A herbicidal effect or phytotoxicity of 90% or more)
Herbicidal effect to Se [3, 5]: 5 (A herbicidal effect or phytotoxicity of 90% or more)
Herbicidal effect to Ec [4, 5]: 5 (A herbicidal effect or phytotoxicity of 90% or more)

CC1(C)CC(S(=O)(=O)Cc2ccccc2[N+](=O)[O-])=NO1 [Compound 1-142]
Herbicidal effect to Ec [1]: 4 (A herbicidal effect or phytotoxicity of 70% to less than 90%)
Herbicidal effect to Eo [2]: 5 (A herbicidal effect or phytotoxicity of 90% or more)
Herbicidal effect to Se [3, 6]: 5 (A herbicidal effect or phytotoxicity of 90% or more)
Herbicidal effect to Ec [4, 6]: 5 (A herbicidal effect or phytotoxicity of 90% or more)

CC(C)Oc1cccc(Cl)c1CS(=O)(=O)C1=NOC(C)(C)C1 [Compound 1-566]
Herbicidal effect to Ec [1]: 4 (A herbicidal effect or phytotoxicity of 70% to less than 90%)
Herbicidal effect to Eo [2]: 5 (A herbicidal effect or phytotoxicity of 90% or more)
Herbicidal effect to Se [3, 5]: 5 (A herbicidal effect or phytotoxicity of 90% or more)
Herbicidal effect to Ec [4, 5]: 5 (A herbicidal effect or phytotoxicity of 90% or more)

CC1(C2CC2)CC(S(=O)(=O)Cc2c(F)cccc2F)=NO1 (centres unmarked) [Compound 1-378]
Herbicidal effect to Ec [1]: 5 (A herbicidal effect or phytotoxicity of 90% or more)
Herbicidal effect to Eo [2]: 5 (A herbicidal effect or phytotoxicity of 90% or more)
Herbicidal effect to Se [3, 6]: 5 (A herbicidal effect or phytotoxicity of 90% or more)
Herbicidal effect to Ec [4, 6]: 5 (A herbicidal effect or phytotoxicity of 90% or more)

CC1(C)CC(S(=O)(=O)Cc2ccc(F)cc2Cl)=NO1 [Compound 1-538]
Herbicidal effect to Ec [1]: 5 (A herbicidal effect or phytotoxicity of 90% or more)
Herbicidal effect to Eo [2]: 5 (A herbicidal effect or phytotoxicity of 90% or more)
Herbicidal effect to Se [3, 5]: 5 (A herbicidal effect or phytotoxicity of 90% or more)
Herbicidal effect to Ec [4, 5]: 5 (A herbicidal effect or phytotoxicity of 90% or more)

CCc1cccc(C)c1CS(=O)(=O)C1=NOC(C)(C)C1 [Compound 1-525]
Herbicidal effect to Ec [1]: 5 (A herbicidal effect or phytotoxicity of 90% or more)
Herbicidal effect to Eo [2]: 5 (A herbicidal effect or phytotoxicity of 90% or more)
Herbicidal effect to Se [3, 5]: 5 (A herbicidal effect or phytotoxicity of 90% or more)
Herbicidal effect to Ec [4, 5]: 5 (A herbicidal effect or phytotoxicity of 90% or more)

CC1(C)CC(S(=O)(=O)Cc2ccccc2C#N)=NO1 [Compound 1-139]
Herbicidal effect to Ec [1]: 4 (A herbicidal effect or phytotoxicity of 70% to less than 90%)
Herbicidal effect to Eo [2]: 5 (A herbicidal effect or phytotoxicity of 90% or more)
Herbicidal effect to Se [3, 6]: 5 (A herbicidal effect or phytotoxicity of 90% or more)
Herbicidal effect to Ec [4, 6]: 5 (A herbicidal effect or phytotoxicity of 90% or more)

CC1(C)CC(S(=O)(=O)Cc2ccccc2Br)=NO1 [Compound 1-35]
Herbicidal effect to Ec [1]: 4 (A herbicidal effect or phytotoxicity of 70% to less than 90%)
Herbicidal effect to Eo [2]: 5 (A herbicidal effect or phytotoxicity of 90% or more)
Herbicidal effect to Se [3, 6]: 5 (A herbicidal effect or phytotoxicity of 90% or more)
Herbicidal effect to Ec [4, 6]: 5 (A herbicidal effect or phytotoxicity of 90% or more)

CC1(C)CC(S(=O)(=O)Cc2cccc(Cl)c2Cl)=NO1 [Compound 1-487]
Herbicidal effect to Ec [1]: 4 (A herbicidal effect or phytotoxicity of 70% to less than 90%)
Herbicidal effect to Eo [2]: 5 (A herbicidal effect or phytotoxicity of 90% or more)
Herbicidal effect to Se [3, 6]: 5 (A herbicidal effect or phytotoxicity of 90% or more)
Herbicidal effect to Ec [4, 6]: 5 (A herbicidal effect or phytotoxicity of 90% or more)

CC1(C)CC(S(=O)(=O)Cc2cc(F)cc(F)c2)=NO1 [Compound 1-506]
Herbicidal effect to Ec [1]: 4 (A herbicidal effect or phytotoxicity of 70% to less than 90%)
Herbicidal effect to Eo [2]: 5 (A herbicidal effect or phytotoxicity of 90% or more)
Herbicidal effect to Se [3, 5]: 5 (A herbicidal effect or phytotoxicity of 90% or more)
Herbicidal effect to Ec [4, 5]: 5 (A herbicidal effect or phytotoxicity of 90% or more)

CC1(C)CC(S(=O)(=O)Cc2c(Cl)cccc2OC(F)F)=NO1 [Compound 1-561]
Herbicidal effect to Ec [1]: 4 (A herbicidal effect or phytotoxicity of 70% to less than 90%)
Herbicidal effect to Eo [2]: 5 (A herbicidal effect or phytotoxicity of 90% or more)
Herbicidal effect to Se [3, 5]: 5 (A herbicidal effect or phytotoxicity of 90% or more)
Herbicidal effect to Ec [4, 5]: 5 (A herbicidal effect or phytotoxicity of 90% or more)

CCCOc1cccc(C)c1CS(=O)(=O)C1=NOC(C)(C)C1 [Compound 1-603]
Herbicidal effect to Ec [1]: 4 (A herbicidal effect or phytotoxicity of 70% to less than 90%)
Herbicidal effect to Eo [2]: 5 (A herbicidal effect or phytotoxicity of 90% or more)
Herbicidal effect to Se [3, 5]: 5 (A herbicidal effect or phytotoxicity of 90% or more)
Herbicidal effect to Ec [4, 5]: 5 (A herbicidal effect or phytotoxicity of 90% or more)

CCOCc1ccccc1CS(=O)(=O)C1=NOC(C)(C)C1 [Compound 1-586]
Herbicidal effect to Ec [1]: 5 (A herbicidal effect or phytotoxicity of 90% or more)
Herbicidal effect to Eo [2]: 5 (A herbicidal effect or phytotoxicity of 90% or more)
Herbicidal effect to Se [3, 5]: 5 (A herbicidal effect or phytotoxicity of 90% or more)
Herbicidal effect to Ec [4, 5]: 5 (A herbicidal effect or phytotoxicity of 90% or more)

Cc1cc(C)c(CS(=O)(=O)C2=NOC(C)(C)C2)c(C)c1 [Compound 1-529]
Herbicidal effect to Ec [1]: 5 (A herbicidal effect or phytotoxicity of 90% or more)
Herbicidal effect to Eo [2]: 5 (A herbicidal effect or phytotoxicity of 90% or more)
Herbicidal effect to Se [3, 5]: 5 (A herbicidal effect or phytotoxicity of 90% or more)
Herbicidal effect to Ec [4, 5]: 5 (A herbicidal effect or phytotoxicity of 90% or more)

CCOc1cccc(OCC)c1CS(=O)(=O)C1=NOC(C)(C)C1 [Compound 1-536]
Herbicidal effect to Ec [1]: 4 (A herbicidal effect or phytotoxicity of 70% to less than 90%)
Herbicidal effect to Eo [2]: 5 (A herbicidal effect or phytotoxicity of 90% or more)
Herbicidal effect to Se [3, 5]: 5 (A herbicidal effect or phytotoxicity of 90% or more)
Herbicidal effect to Ec [4, 5]: 5 (A herbicidal effect or phytotoxicity of 90% or more)

CC1(C)CC(S(=O)(=O)Cc2c(Br)cccc2Br)=NO1 [Compound 1-554]
Herbicidal effect to Ec [1]: 5 (A herbicidal effect or phytotoxicity of 90% or more)
Herbicidal effect to Eo [2]: 5 (A herbicidal effect or phytotoxicity of 90% or more)
Herbicidal effect to Se [3, 5]: 5 (A herbicidal effect or phytotoxicity of 90% or more)
Herbicidal effect to Ec [4, 5]: 5 (A herbicidal effect or phytotoxicity of 90% or more)

CCC1(C)CC(S(=O)(=O)Cc2ccccc2C(F)(F)F)=NO1 (centres unmarked) [Compound 1-336]
Herbicidal effect to Ec [1]: 5 (A herbicidal effect or phytotoxicity of 90% or more)
Herbicidal effect to Eo [2]: 5 (A herbicidal effect or phytotoxicity of 90% or more)
Herbicidal effect to Se [3, 6]: 5 (A herbicidal effect or phytotoxicity of 90% or more)
Herbicidal effect to Ec [4, 6]: 5 (A herbicidal effect or phytotoxicity of 90% or more)

CC1(C)CC(S(=O)(=O)Cc2ccc(F)c(C(F)(F)F)c2)=NO1 [Compound 1-541]
Herbicidal effect to Ec [1]: 4 (A herbicidal effect or phytotoxicity of 70% to less than 90%)
Herbicidal effect to Eo [2]: 5 (A herbicidal effect or phytotoxicity of 90% or more)
Herbicidal effect to Se [3, 5]: 5 (A herbicidal effect or phytotoxicity of 90% or more)
Herbicidal effect to Ec [4, 5]: 5 (A herbicidal effect or phytotoxicity of 90% or more)

CC1(C)CC(S(=O)(=O)Cc2cccc(C(F)(F)F)c2)=NO1 [Compound 1-158]
Herbicidal effect to Ec [1]: 5 (A herbicidal effect or phytotoxicity of 90% or more)
Herbicidal effect to Eo [2]: 5 (A herbicidal effect or phytotoxicity of 90% or more)
Herbicidal effect to Se [3, 6]: 5 (A herbicidal effect or phytotoxicity of 90% or more)
Herbicidal effect to Ec [4, 6]: 5 (A herbicidal effect or phytotoxicity of 90% or more)

Cc1cccc(OC(C)C)c1CS(=O)(=O)C1=NOC(C)(C)C1 [Compound 1-604]
Herbicidal effect to Ec [1]: 5 (A herbicidal effect or phytotoxicity of 90% or more)
Herbicidal effect to Eo [2]: 5 (A herbicidal effect or phytotoxicity of 90% or more)
Herbicidal effect to Se [3, 5]: 5 (A herbicidal effect or phytotoxicity of 90% or more)
Herbicidal effect to Ec [4, 5]: 5 (A herbicidal effect or phytotoxicity of 90% or more)

CCC1(C)CC(S(=O)(=O)Cc2cccc(Cl)c2)=NO1 (centres unmarked) [Compound 1-193]
Herbicidal effect to Ec [1]: 5 (A herbicidal effect or phytotoxicity of 90% or more)
Herbicidal effect to Eo [2]: 5 (A herbicidal effect or phytotoxicity of 90% or more)
Herbicidal effect to Se [3, 6]: 4 (A herbicidal effect or phytotoxicity of 70% to less than 90%)
Herbicidal effect to Ec [4, 6]: 5 (A herbicidal effect or phytotoxicity of 90% or more)

CC1(C)CC(S(=O)(=O)Cc2cc(Cl)ccc2Cl)=NO1 [Compound 1-489]
Herbicidal effect to Ec [1]: 4 (A herbicidal effect or phytotoxicity of 70% to less than 90%)
Herbicidal effect to Eo [2]: 5 (A herbicidal effect or phytotoxicity of 90% or more)
Herbicidal effect to Se [3, 6]: 5 (A herbicidal effect or phytotoxicity of 90% or more)
Herbicidal effect to Ec [4, 6]: 5 (A herbicidal effect or phytotoxicity of 90% or more)
